The text below walks through data of ChEMBL document CHEMBL2074296, “Kinetic analysis of hepatobiliary transport of organic anions in Eisai hyperbilirubinemic mutant rats” (J Pharmacol Exp Ther, 1993).

The target of data set [1] is T1, ATP-binding cassette sub-family C member 2 (Rattus norvegicus, UniProt Q63120). The experiment in a line: TP_TRANSPORTER: biliary excretion in SD rat. Type of data set: functional, organism-based, Sprague-Dawley, Bile. As to conditions: in vivo.
For data set [2], the target named is T1, ATP-binding cassette sub-family C member 2. The experiment in a line: TP_TRANSPORTER: biliary excretion in EHBR rat. Format: functional, organism-based, Bile. Particulars: in vivo.

T1 sequence (Q63120 whole entry): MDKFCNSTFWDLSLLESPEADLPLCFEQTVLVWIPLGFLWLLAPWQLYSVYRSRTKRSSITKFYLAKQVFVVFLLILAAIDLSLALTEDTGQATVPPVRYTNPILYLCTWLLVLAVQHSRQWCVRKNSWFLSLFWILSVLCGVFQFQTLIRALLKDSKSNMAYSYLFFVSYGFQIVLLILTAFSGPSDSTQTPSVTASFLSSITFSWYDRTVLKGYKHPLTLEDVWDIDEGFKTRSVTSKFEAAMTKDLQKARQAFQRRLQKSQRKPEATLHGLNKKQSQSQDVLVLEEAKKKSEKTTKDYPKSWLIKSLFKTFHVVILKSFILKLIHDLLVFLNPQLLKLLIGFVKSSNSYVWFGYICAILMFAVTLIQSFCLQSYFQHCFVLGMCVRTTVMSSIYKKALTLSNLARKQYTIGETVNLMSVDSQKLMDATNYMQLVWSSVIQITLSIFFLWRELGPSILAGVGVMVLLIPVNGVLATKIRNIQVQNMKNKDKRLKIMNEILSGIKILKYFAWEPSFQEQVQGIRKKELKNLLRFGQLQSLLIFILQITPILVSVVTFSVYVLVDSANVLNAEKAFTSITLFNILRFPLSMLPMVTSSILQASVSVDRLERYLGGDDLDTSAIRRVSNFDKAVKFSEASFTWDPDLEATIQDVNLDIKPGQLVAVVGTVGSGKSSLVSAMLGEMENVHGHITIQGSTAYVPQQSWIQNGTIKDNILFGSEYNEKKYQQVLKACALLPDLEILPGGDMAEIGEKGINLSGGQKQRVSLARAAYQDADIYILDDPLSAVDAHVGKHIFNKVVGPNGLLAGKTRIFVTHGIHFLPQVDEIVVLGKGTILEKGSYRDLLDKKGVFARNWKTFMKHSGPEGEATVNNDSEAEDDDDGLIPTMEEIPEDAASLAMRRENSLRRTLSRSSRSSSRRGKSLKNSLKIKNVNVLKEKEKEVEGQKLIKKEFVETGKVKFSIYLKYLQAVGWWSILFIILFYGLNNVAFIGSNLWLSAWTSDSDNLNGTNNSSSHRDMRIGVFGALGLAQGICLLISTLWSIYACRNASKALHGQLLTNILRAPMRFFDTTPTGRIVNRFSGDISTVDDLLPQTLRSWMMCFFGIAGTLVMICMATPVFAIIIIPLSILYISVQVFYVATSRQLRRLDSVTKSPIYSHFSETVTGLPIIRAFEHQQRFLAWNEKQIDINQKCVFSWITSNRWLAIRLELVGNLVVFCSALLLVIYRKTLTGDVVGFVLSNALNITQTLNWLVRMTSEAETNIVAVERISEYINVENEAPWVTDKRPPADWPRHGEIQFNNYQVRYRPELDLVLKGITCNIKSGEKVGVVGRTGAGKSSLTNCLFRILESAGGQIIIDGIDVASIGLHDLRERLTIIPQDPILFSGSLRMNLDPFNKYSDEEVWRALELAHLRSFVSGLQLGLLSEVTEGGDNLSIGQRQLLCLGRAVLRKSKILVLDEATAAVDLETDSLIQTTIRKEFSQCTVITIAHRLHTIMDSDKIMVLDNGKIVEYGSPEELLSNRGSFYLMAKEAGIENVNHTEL

Take `CO/N=C(\C(=O)N[C@@H]1C(=O)N2C(C(=O)O)=C(CSc3nc(C)c(CC(=O)O)s3)CS[C@H]12)c1csc(N)n1` [CEFODIZIME]: the Activity entry in data set [1] and in data set [2] was “substrate [+]” in each case.
In the case of `O=C1OC(c2ccc(OS(=O)(=O)O)cc2)(c2ccc(OS(=O)(=O)O)cc2)c2c(Br)ccc(Br)c21` [DIBROMOSULFOPHTHALEIN], the Activity entry in data set [1] and in data set [2] was “substrate [+]” in each case.
Take `CC1(C)C(/C=C/C=C/C=C/C=C2/N(CCCCS(=O)(=O)[O-])c3ccc4ccccc4c3C2(C)C)=[N+](CCCCS(=O)(=O)[O-])c2ccc3ccccc3c21.[Na+]` [INDOCYANINE GREEN]: the Activity result in data set [1] and in data set [2] was “substrate [+]” in each case.
